Data set [1] can be described thus: (§1) Toxicity in Artemia salina. The class given is organism-based. The settings on record: in vivo.
For data set [2], the system named is A549. Nature of the data set: Cytotoxicity against human A549 cells. The class given is functional. As to conditions: read-out: ED50 (the source's name).
Data set [3] has as its system MCF7. Nature of the data set: Cytotoxicity against human MCF7 cells. Format: functional. As to conditions: read-out: ED50 (the source's name).
In data set [4] the test system is HT-29. Nature of the data set: Cytotoxicity against human HT-29 cells. The class given is functional. The settings on record: read-out: ED50 (the source's name).
The nature of data set [5]: Cytotoxicity against human […] cells. As to conditions: read-out: ED50 (the source's name). The class given is functional.
Data set [6] concerns PC-3. Nature of the data set: Cytotoxicity against human PC-3 cells. Format: functional. The settings on record: read-out: ED50 (the source's name).
The subject of data set [7] is MIA PaCa-2. Nature of the data set: Cytotoxicity against human PaCa2 cells. As to conditions: read-out: ED50 (the source's name). Format: functional.
Data set [8] has as its system Artemia salina. The data set is described as §1. The class given is organism-based. The settings on record: in vivo.

≈ marks a conversion by molar mass, not a printed value.

For the compound `CCCCCCCCCCCCCCCCCCCC(=O)NCCc1c[nH]c2ccccc12`, the LC50 in data set [1] is more than 500 µg/mL. For the same compound, the EC50 in data set [2], in data set [3], in data set [4], in data set [5], in data set [6] and in data set [7] was more than 10 µg/mL each time.

In data set [1], `CCCCCCCCCCCCCCCCCCCCCC(=O)NCCc1c[nH]c2ccccc12` showed an LC50 of more than 500 µg/mL. Moreover, the EC50 in data set [2], in data set [3], in data set [4], in data set [5], in data set [6] and in data set [7] was more than 10 µg/mL throughout.

`CCCCCCCCCC[C@H](O)[C@H]1CC[C@H]([C@H]2CC[C@H]([C@H](O)CCCCCCCCCCCCC3=C[C@H](C)OC3=O)O2)O1` [BULLANIN] came in with an LC50 in data set [8] of 1.6 ×10⁻² ug/ml. For the same compound, the EC50 in data set [2] was 0.47 µg/mL (≈ 0.774 µM); in data set [3] it was 1.35 µg/mL (≈ 2.22 µM); in data set [4], 1.69 µg/mL (≈ 2.78 µM); in data set [5] it was less than 0.001 µg/mL; in data set [6], less than 0.001 µg/mL; in data set [7], 1.92 µg/mL (≈ 3.16 µM).

In data set [1], `CCCCCCCCCCCCCCCCCC(=O)NCCc1c[nH]c2ccccc12` came in with an LC50 of more than 500 µg/mL. The EC50 in data set [2], in data set [3], in data set [4], in data set [5], in data set [6] and in data set [7] was more than 10 µg/mL each time.

In turn, `CCCCCCCCCCCCCCCCCCCCCCCC(=O)NCCc1c[nH]c2ccccc12` returned an LC50 in data set [1] of more than 500 µg/mL. In addition, the EC50 in data set [2], in data set [3], in data set [4], in data set [5], in data set [6] and in data set [7] was more than 10 µg/mL in each case.

Turning to `COc1cccc2c1C(=O)c1c(O)c3c(c(O)c1C2=O)C[C@@](O)(C(=O)CO)C[C@@H]3O[C@H]1C[C@H](N)[C@H](O)[C@H](C)O1` [DOXORUBICIN], the EC50 in data set [2] worked out at 0.89 µg/mL (≈ 1.64 µM); in data set [3] it was 3.6 µg/mL (≈ 6.62 µM); in data set [4], 3.7 µg/mL (≈ 6.81 µM); in data set [5], 0.0083 µg/mL (≈ 0.0153 µM); in data set [6] it was 0.0056 µg/mL (≈ 0.0103 µM); in data set [7], 0.0011 µg/mL (≈ 0.00202 µM).

For `CCCCCCCCCCCCCCCCCCCCCCCCC(=O)NCCc1c[nH]c2ccccc12`, the LC50 in data set [1] was more than 500 µg/mL. For the same compound, the EC50 in data set [2], in data set [3], in data set [4], in data set [5], in data set [6] and in data set [7] was more than 10 µg/mL each time.

In data set [1], `CCCCCCCCCCCCCCCC(=O)NCCc1c[nH]c2ccccc12` showed an LC50 of more than 500 µg/mL. Besides, the EC50 in data set [2], in data set [3], in data set [4], in data set [5], in data set [6] and in data set [7] was more than 10 µg/mL throughout.

`CCCCCCCCCC[C@H](O)[C@@H]1CC[C@H]([C@H]2CC[C@@H]([C@H](O)CCCCCCCCCCCCC3=C[C@H](C)OC3=O)O2)O1` [MEMBRANACIN] displayed an LC50 in data set [8] of 5 ×10⁻² ug/ml. Also, the EC50 in data set [2] is 0.4 µg/mL (≈ 0.659 µM); in data set [3], 2.18 µg/mL (≈ 3.59 µM); in data set [4], 3.04 µg/mL (≈ 5.01 µM); in data set [5], less than 0.001 µg/mL; in data set [6], less than 0.001 µg/mL; in data set [7] it was 2.1 µg/mL (≈ 3.46 µM).

In the case of `CCCCCCCCCCCCCCCCCCCCCCCCCC(=O)NCCc1c[nH]c2ccccc12`, the LC50 in data set [1] was more than 500 µg/mL. The EC50 in data set [2], in data set [3], in data set [4], in data set [5], in data set [6] and in data set [7] was more than 10 µg/mL each time.

The compound `CCCCCCCCCCCCCCCCCCCCCCC(=O)NCCc1c[nH]c2ccccc12` gave an LC50 in data set [1] of more than 500 µg/mL. In addition, the EC50 in data set [2], in data set [3], in data set [4], in data set [5], in data set [6] and in data set [7] was more than 10 µg/mL each time.

The values above are taken from ChEMBL document CHEMBL1144086, “Tryptamine derived amides and acetogenins from the seeds of Rollinia mucosa” (J Nat Prod, 1999).
